# Reference: patent US20160066610A1, “METHODS FOR ENHANCING AGED MUSCLE REGENERATION” (ABBOTT LABORATORIES, priority 2013, published 2016)
# Where “and” joins values, the source holds several entries; their conditions need not be identical. Equal entries are not always repeated.
# System: FGF2
# Assay: Intramuscular FGF2 in gastrocnemius muscle lysates after 8 weeks of dietary supplementation, aged SD rat model of sarcopenia
# Assay type: in vivo, Sprague Dawley (SD) rat
# Conditions: for level of intramuscular FGF2, individual rat / level of intramuscular FGF2, AVE: aged (21 month) SD rats, gastrocnemius lysate, end of 8 week study, EGCg 50 mg/kg bw; for level of intramuscular FGF2, individual rat: Ca-HMB 340 mg/kg bw in AIN-93M diet, one value per rat (Rat 1-10); for % Change from Control (intramuscular FGF2): group average vs control diet AIN-93M, 8 weeks; for level of intramuscular FGF2, AVE: group average, Ca-HMB 340 mg/kg bw
# Method: Example 3 illustrates the effect of 8 weeks of dietary supplementation in the aged Sprague Dawley (SD) rat model of sarcopenia. More particularly, the level of intramuscular FGF2 in gastrocnemius muscle lysates of aged SD rats (21 month) were analyzed and compared. The four experimental groups included:
# 1) control group: fed AIN-93M (purified diet);
# 2) EGCg group: fed AIN-93M+EGCg (Teavigo®-DSM-50 mg/kg bw);
# 3) HMB group: fed AIN-93M+Ca-HMB (340 mg/kg bw); and
# 4) HMB+EGCg group: fed AIN-93M+Ca-HMB (340 mg/kg bw)+EGCg (Teavigo®-50 mg/kg bw).
# A total of 40 rats were divided equally among the four groups. Whole gastrocnemius muscles were collected from euthanized rats and flash frozen in liquid nitrogen. Approximately 200 mg tissue was obtained from each muscle by mechanical biopsy punch. Specimens were then pulverized on liquid nitrogen and transferred to 15 mL conical tube and weighed. A mild, detergent free lysis buffer (9×) was added to the dried specimen in the conical tube. 9× Lysis buffer (50 mM Tris.HCl, 2 mM EDTA, pH 7.4/NaOH) was supplemented with a mammalian protease inhibitor cocktail (Sigma) at a 1:200 dilution and stored on ice. The specimens were then vortexed again for 10 sec. and transferred to a 1.5 mL tube. Lysates were centrifuged/clarified for 5 min. at 11000 rpm at 4° C. in a standard table-top Eppendorf centrifuge. Supernatant (1 mL) was aliquotted to a 2 mL cryotube and stored at −80° C. Lystates were analyzed by Myriad Rules Based Medicine (Austin, Tex.) on the RodentMAP® v. 2.0 Antigens and Rat METABOLIC® multi-analyte profiling platforms.
Compound,"level of intramuscular FGF2, individual rat",% Change from Control (intramuscular FGF2) [%],"level of intramuscular FGF2, AVE"
"CC(C)(O)CC(=O)O [HMB, beta-hydroxy-beta-methylbutyrate]",15.0 ng/mL of lysate and 21.0 ng/mL of lysate and 6.1 ng/mL of lysate and 3.1 ng/mL of lysate and 4.3 ng/mL of lysate and 11.0 ng/mL of lysate and 4.0 ng/mL of lysate and 4.9 ng/mL of lysate,18.8,8.68 ng/mL of lysate
epigallocatechin-3-gallate [EGCg],3.7 ng/mL of lysate (2×) and 16.0 ng/mL of lysate and 15.0 ng/mL of lysate and 9.9 ng/mL of lysate and 5.5 ng/mL of lysate and 3.1 ng/mL of lysate (3×) and 7.8 ng/mL of lysate,−2.9,7.09 ng/mL of lysate
